{
  "source": "patent EP2906547B2",
  "about": "“COSMETIC COMPOSITIONS CONTAINING AT LEAST ONE HYDROTROPE AND AT LEAST ONE ACTIVE COMPOUND” (priority 2012, dated 2014)",
  "key": {"[1]": {"assay": "Solubility of adenosine in water with and without hydrotropes"}, "physchem": {"assay": "physchem", "method": "Another aspect of the text discloses a method for preparing the aqueous compositions comprising including in the composition at least one phenolic compound and at least one hydrotrope in an amount sufficient to solubilize the phenolic compound, such as a polyphenol, in water. A hydrotrope solution is prepared by completely dissolving one or more hydrotropic agents into water. At least one phenolic compound is then added in and mixed using a stirring bar or any other mixer. […] Everything is prepared at room temperature to keep the stability of the phenolic compound(s).\nEverything is prepared at room temperature to keep the stability of the phenolic compounds."}, "[2]": {"assay": "Solubility of baicalin in water as a function of pH", "assay_type": "physicochemical", "details": "for solubility: water"}, "[3]": {"assay": "Stability of solutions on dilution in water"}, "[4]": {"details": "5% nicotinamide and 5% caffeine, room temperature"}, "[5]": {"details": "5% nicotinamide, 5% caffeine, water"}},
  "note": "Where two headings read alike, the source gives them in different places.",
  "data": [
    {"smiles": "Nc1ncnc2c1ncn2[C@@H]1O[C@H](CO)[C@@H](O)[C@H]1O", "note": "[Adenosine]", "values": [
      {"measurement": "Solubility in water with hydrotropes", "setting": "[1]; [4]", "value": ">3 %(w/w)"},
      {"measurement": "solubility thermodynamic", "setting": "[1]; water", "value": "< 5000", "unit": "µg/mL"}
    ]},
    {"smiles": "O=C(O)[C@H]1O[C@@H](Oc2cc3oc(-c4ccccc4)cc(=O)c3c(O)c2O)[C@H](O)[C@@H](O)[C@@H]1O", "note": "[Baicalin]", "values": [
      {"measurement": "water solubility", "setting": "physchem; 2% caffeine in water", "value": 0.11, "unit": "%"},
      {"measurement": "Solubility in water with hydrotropes", "setting": "physchem; [5]", "value": ">1 % (w/w)"},
      {"measurement": "amount solubilized in water", "setting": "physchem; [5]", "value": "approximately 1%"},
      {"measurement": "solubility thermodynamic", "setting": "physchem; water", "value": "< 100", "unit": "µg/mL"},
      {"measurement": "pH at which degradation happens", "setting": "[2]; in water", "value": "> 5"},
      {"measurement": "solubility", "setting": "[2]; pH 3, water, in water, pH 3, read-out: Solubility", "value": 16, "unit": "µg/mL"},
      {"measurement": "solubility", "setting": "[2]; pH 3.5, water, in water, pH 3.5, read-out: Solubility", "value": 21, "unit": "µg/mL"},
      {"measurement": "solubility", "setting": "[2]; pH 4, water, in water, pH 4, read-out: Solubility", "value": 40, "unit": "µg/mL"},
      {"measurement": "solubility", "setting": "[2]; pH 4.5, water, in water, pH 4.5, read-out: Solubility", "value": 84, "unit": "µg/mL"},
      {"measurement": "solubility", "setting": "[2]; pH 4.5, water, without hydrotrope, natural pH -4.5, read-out: solubility in water", "value": "< 100", "unit": "µg/mL"},
      {"measurement": "solubility", "setting": "[2]; pH 5, water, in water, pH 5, read-out: Solubility", "value": 350, "unit": "µg/mL"},
      {"measurement": "stability of dilution in water", "setting": "[3]; hydrotrope solution diluted in water", "value": "still stable"},
      {"measurement": "stability of dilution in water", "setting": "[3]; solution in organic solvent (e.g. PEG-4) diluted in water, crystallization or precipitation occurs", "value": "not stable any more"}
    ]},
    {"smiles": "O=c1oc2c(O)c(O)cc3c(=O)oc4c(O)c(O)cc1c4c23", "note": "[Ellagic acid]", "values": [
      {"measurement": "Solubility in water with hydrotropes", "setting": "physchem; [4]", "value": ">0.01 % (w/w)"},
      {"measurement": "solubility thermodynamic", "setting": "physchem; water", "value": "< 10", "unit": "µg/mL"}
    ]},
    {"smiles": "COc1ccc([C@@H]2CC(=O)c3c(O)cc(O[C@@H]4O[C@H](CO)[C@@H](O)[C@H](O)[C@H]4O[C@@H]4O[C@@H](C)[C@H](O)[C@@H](O)[C@H]4O)cc3O2)cc1O", "note": "[Neohesperidin]", "values": [
      {"measurement": "Solubility in water without hydrotropes", "setting": "physchem; water", "value": "<0.05 % (w/w)"}
    ]},
    {"smiles": "Oc1ccc(C=Cc2cc(O)cc(O)c2)cc1", "note": "[Resveratrol]", "values": [
      {"measurement": "Solubility in water with hydrotropes", "setting": "physchem; [5]", "value": ">0.75 % (w/w)"},
      {"measurement": "solubility thermodynamic", "setting": "physchem; water", "value": "< 50", "unit": "µg/mL"}
    ]},
    {"smiles": "O=C1c2c(O)cc(O)cc2O[C@H](c2ccc(O)c(O)c2)[C@H]1O", "note": "[Taxifolin]", "values": [
      {"measurement": "Solubility in water with hydrotropes", "setting": "physchem; [4]", "value": ">1 % (w/w)"},
      {"measurement": "solubility thermodynamic", "setting": "physchem; water", "value": "< 1000", "unit": "µg/mL"}
    ]}
  ]
}
